The values that follow come from patent US9745310B2 (SK BIOPHARMACEUTICALS CO., LTD., priority 2015, dated 2017).

As a reminder, the EC50 is the concentration giving half of the maximal effect.

Structures are written as SMILES.

Chain of human mGluR5 receptor (P41594 21-1212): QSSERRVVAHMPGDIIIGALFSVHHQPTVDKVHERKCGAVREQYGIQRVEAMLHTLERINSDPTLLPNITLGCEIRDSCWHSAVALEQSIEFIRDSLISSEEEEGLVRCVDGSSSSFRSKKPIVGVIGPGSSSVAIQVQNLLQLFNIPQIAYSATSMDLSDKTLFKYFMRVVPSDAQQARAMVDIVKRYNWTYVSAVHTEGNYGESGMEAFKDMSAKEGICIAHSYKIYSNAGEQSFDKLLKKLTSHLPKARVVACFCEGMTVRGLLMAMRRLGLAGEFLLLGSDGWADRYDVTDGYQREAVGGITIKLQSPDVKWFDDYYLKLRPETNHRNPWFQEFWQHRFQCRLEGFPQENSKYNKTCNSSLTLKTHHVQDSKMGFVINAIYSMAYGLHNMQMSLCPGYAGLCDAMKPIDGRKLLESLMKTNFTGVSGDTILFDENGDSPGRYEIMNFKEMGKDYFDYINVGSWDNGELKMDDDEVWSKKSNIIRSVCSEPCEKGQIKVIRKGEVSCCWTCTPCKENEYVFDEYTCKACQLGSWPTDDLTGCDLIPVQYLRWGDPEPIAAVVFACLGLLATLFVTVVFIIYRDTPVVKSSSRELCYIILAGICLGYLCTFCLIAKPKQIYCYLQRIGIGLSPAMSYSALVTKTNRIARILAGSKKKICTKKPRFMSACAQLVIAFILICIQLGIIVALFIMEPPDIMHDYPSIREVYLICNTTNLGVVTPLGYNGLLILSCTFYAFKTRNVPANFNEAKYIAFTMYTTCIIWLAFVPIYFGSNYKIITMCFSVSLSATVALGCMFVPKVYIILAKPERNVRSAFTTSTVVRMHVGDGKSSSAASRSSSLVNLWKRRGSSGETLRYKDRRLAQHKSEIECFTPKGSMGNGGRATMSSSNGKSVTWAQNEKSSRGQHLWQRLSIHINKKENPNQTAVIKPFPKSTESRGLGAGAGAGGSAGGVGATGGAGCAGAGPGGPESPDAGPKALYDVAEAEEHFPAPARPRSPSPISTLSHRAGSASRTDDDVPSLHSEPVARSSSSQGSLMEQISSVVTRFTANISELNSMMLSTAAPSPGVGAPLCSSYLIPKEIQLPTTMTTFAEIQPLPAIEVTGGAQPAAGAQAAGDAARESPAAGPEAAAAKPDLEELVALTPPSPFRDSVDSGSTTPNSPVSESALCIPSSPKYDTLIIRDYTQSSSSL

For this assay, the target named is human mGluR5 receptor (Homo sapiens (Human), UniProt P41594). In words: Calcium influx assay based on fluorescence (mGluR5 PAM activity). Conditions: human mGluR5 receptor-overexpressed HEK293 cell line; L-glutamate EC20; Fluo-4, FLIPR. On the procedure:
Efficacy as a positive allosteric modulator (PAM) of mGluR5 of the compounds of the Examples was tested as follows:
Calcium Influx Assay Based on Fluorescence
Ca^2+ (calcium) influx assay is an experiment for measuring the activity of a positive allosteric modulator of mGluR5 receptor in which human mGluR5 receptor-overexpressed HEK293 cell line is used. The day before the experiment, cells were prepared in a cell culture medium (DMEM, 5% FBS) with the density of 80,000/well, and 100 μl of cells were dispensed into each well of a poly-D-lysine-coated 96-well plate. Cells were incubated in a 5% CO2, 37° C. incubator. The next day, the cell culture medium was removed from the plate, and 100 μl of 1× Fluo-4 calcium indicator diluted with a buffer (1× Hank's balanced salt solution, 20 mM HEPES, 2.5 mM probenecid) were added to each well and incubated at 37° C. for 1 hour. The compound stock solutions were prepared in 100% DMSO, and the compounds were serially diluted with a ¼ dilution to 6 or 7 concentrations (final concentration was 10 μM to 10 nM). The diluted compound solutions were added to the plate with 0.1 to 0.2% of final DMSO concentration. 1 hour after the addition of Fluo-4 calcium indicator, L-glutamate (EC20 concentration) and the test compound solutions were added to the plate, and Ca^2+ reaction was then measured by FLIPR at room temperature. The activity of the compounds was standardized on the basis of the results of maximum value-minimum value of fluorescent reaction, and the activity value was calculated on the basis that no activity on glutamate EC20 is 0% and the reaction to glutamate maximum value is 100%.
Regarding `CSc1cc(F)ccc1-c1cnc2nc(COc3ccccc3)cn2c1` [Example 26, 6-(4-fluoro-2-methylthiophenyl)-2-phenoxymethylimidazo[1,2-a]pyrimidine], the EC50 lay in the range of 100 to 500 nM.
Then `Clc1cnccc1-c1cnc2nc(COc3ccccc3)cn2c1` [Example 36, 6-(3-chloropyridin-4-yl)-2-phenoxymethylimidazo[1,2-a]pyrimidine], with 100 to 500 nM; and `Oc1ccccc1-c1cnc2nc(COc3ccnc(F)c3)cn2c1` [Example 169, 6-(2-hydroxyphenyl)-2-(2-fluoropyridin-4-yloxymethyl)imidazo[1,2-a]pyrimidine], with 100 to 500 nM; and `Fc1ccc(-c2cnc3nc(COc4ccccn4)cn3c2)c2c1OCO2` [Example 110, 6-(7-fluoro-2H-benzo[1,3]dioxol-4-yl)-2-(pyridin-2-yloxymethyl)imidazo[1,2-a]pyrimidine], with 100 to 500 nM.
Then `Fc1ccc(-c2cnc3nc(COc4ccncc4)cn3n2)c(F)c1` [Example 179, 2-(2,4-difluorophenyl)-6-((pyridin-4-yloxy)methyl)imidazo[1,2-b][1,2,4]triazine], with 100 to 500 nM; and `Cc1ccncc1-c1cnc2nc(COc3cccc(F)c3)cn2c1` [Example 46, 6-(4-methylpyridin-3-yl)-2-(3-fluorophenoxymethyl)imidazo[1,2-a]pyrimidine], with 100 to 500 nM; and `COc1c(F)cccc1-c1cnc2nc(COc3cc(F)ccn3)cn2c1` [Example 121, 6-(3-fluoro-2-methoxy-phenyl)-2-[(4-fluoro-2-pyridyl)oxymethyl)imidazo[1,2-a]pyrimidine], with 100 to 500 nM.
Regarding `Oc1ccccc1-c1cnc2nc(COc3ccc(F)cc3)cn2c1` [Example 63, 2-[2-[(4-fluorophenoxy)methyl]imidazo[1,2-a]pyrimidin-6-yl]phenol], the EC50 lay within 100 to 500 nM.
Then `Fc1cccc(OCc2cn3cc(-c4ccncc4Cl)cnc3n2)c1` [Example 45, 6-(3-chloropyridin-4-yl)-2-(3-fluorophenoxymethyl)imidazo[1,2-a]pyrimidine], with 100 to 500 nM; and `Cc1ccc(-c2cnc3nc(COc4ccc(F)cn4)cn3c2)c(C)c1` [Example 128, 6-(2,4-dimethylphenyl)-2-[(5-fluoro-2-pyridyl)oxymethyl)imidazo[1,2-a]pyrimidine], with 500 to 1000 nM.
Then `Cc1cc(F)ccc1-c1cnc2nc(COc3cccnc3F)cn2c1` [Example 159, 6-(4-fluoro-2-methylphenyl)-2-(2-fluoropyridin-3-yloxymethyl)imidazo[1,2-a]pyrimidine], with 500 to 1000 nM.
As for `Nc1cc(F)ccc1-c1cnc2nc(COc3cccc(F)c3)cn2c1` [Example 101, 5-fluoro-2-[2-[(3-fluorophenoxy)methyl]imidazo[1,2-a]pyrimidin-6-yl]aniline], the figure is 100 to 500 nM; as for `Cc1ccc(F)cc1-c1cnc2nc(COc3ccc(F)cc3)cn2c1` [Example 61, 6-(5-fluoro-2-methyl-phenyl)-2-[(4-fluorophenoxy)methyl]imidazo[1,2-a]pyrimidine], 500 to 1000 nM.
Consider `Fc1cccc(OCc2cn3cc(-c4cccnc4F)cnc3n2)c1` [Example 82, 2-[(3-fluorophenoxy)methyl]-6-(2-fluoro-3-pyridyl)imidazo[1,2-a]pyrimidine], for which the EC50 is 100 to 500 nM.
As for `Cc1ccc(N)c(-c2cnc3nc(COc4cccc(F)c4)cn3c2)c1` [Example 100, 2-[2-[(3-fluorophenoxy)methyl]imidazo[1,2-a]pyrimidin-6-yl]-4-methyl-aniline], the figure is 500 to 1000 nM; as for `CSc1cc(F)ccc1-c1cnc2nc(COc3ccccn3)cn2c1` [Example 138, 6-(4-fluoro-2-methylsulfanyl-phenyl)-2-(2-pyridyloxymethyl)imidazo[1,2-a]pyrimidine], 100 to 500 nM.
With `Fc1ccc(OCc2cn3cc(-c4ccc(F)cn4)cnc3n2)cc1` [Example 85, 2-[(4-fluorophenoxy)methyl]-6-(5-fluoro-2-pyridyl)imidazo[1,2-a]pyrimidine], the EC50 was in the range of 100 to 500 nM.
As for `OCc1cc(F)ccc1-c1cnc2nc(COc3ccnc(F)c3)cn2c1` [Example 170, 6-(4-fluoro-2-hydroxymethylphenyl)-2-(2-fluoropyridin-4-yloxymethyl)imidazo[1,2-a]pyrimidine], the figure is 100 to 500 nM; as for `Nc1cc(F)ccc1-c1cnc2nc(COc3cncc(F)c3)cn2c1` [Example 175, 5-fluoro-2-[2-[(5-fluoro-3-pyridyl)oxymethyl]imidazo[1,2-a]pyrimidin-6-yl]aniline], 500 to 1000 nM; as for `COc1ccc(-c2cnc3nc(COc4ccc(F)cc4)cn3c2)nc1` [Example 86, 2-[(4-fluorophenoxy)methyl]-6-(5-methoxy-2-pyridyl)imidazo[1,2-a]pyrimidine], 100 to 500 nM.
As for `COc1cc(-c2cnc3nc(COc4ccccc4)cn3c2)ccc1F` [Example 21, 6-(4-fluoro-3-methoxyphenyl)-2-phenoxymethylimidazo[1,2-a]pyrimidine], the figure is 500 to 1000 nM; as for `Fc1cccc(OCc2cn3cc(-c4ccc(F)cc4C(F)(F)F)cnc3n2)c1` [Example 94, 2-[(3-fluorophenoxy)methyl]-6-[4-fluoro-2-(trifluoromethyl)phenyl]imidazo[1,2-a]pyrimidine], 100 to 500 nM; as for `Fc1ccc(-c2cnc3nc(COc4ccnc(F)c4)cn3c2)cc1` [Example 164, 6-(4-fluorophenyl)-2-(2-fluoropyridin-4-yloxymethyl)imidazo[1,2-a]pyrimidine], 100 to 500 nM.
As for `FC(F)(F)c1cc(Cl)ccc1-c1cnc2nc(COc3ccccn3)cn2c1` [Example 145, 6-[4-chloro-2-(trifluoromethyl)phenyl]-2-(2-pyridyloxymethyl)imidazo[1,2-a]pyrimidine], the figure is 100 to 500 nM; as for `Cc1ccncc1-c1cnc2nc(COc3ccccc3)cn2c1` [Example 32, 6-(4-methylpyridin-3-yl)-2-phenoxymethylimidazo[1,2-a]pyrimidine], 100 to 500 nM.
Consider `Cc1cc(F)ccc1-c1cnc2nc(COc3ccc(F)cc3)cn2c1` [Example 48, 6-(4-fluoro-2-methylphenyl)-2-(4-fluorophenoxymethyl)imidazo[1,2-a]pyrimidine], for which the EC50 fell in the range of 100 to 500 nM.
With `Fc1ccc(OCc2cn3cc(-c4ccc(F)nc4)cnc3n2)cc1` [Example 51, 2-[(4-fluorophenoxy)methyl]-6-(6-fluoro-3-pyridyl)imidazo[1,2-a]pyrimidine], the 50% effective concentration (EC50) fell in the range of 100 to 500 nM.
Then `Fc1ccc(-c2cnc3nc(COc4cccc(F)c4)cn3c2)nc1` [Example 93, 2-[(3-fluorophenoxy)methyl]-6-(5-fluoro-2-pyridyl)imidazo[1,2-a]pyrimidine], with 100 to 500 nM; and `Cc1cc(F)ncc1-c1cnc2nc(COc3ccccc3)cn2c1` [Example 38, 6-(6-fluoro-4-methyl-3-pyridyl)-2-phenoxymethylimidazo[1,2-a]pyrimidine], with 100 to 500 nM; and `Fc1ccc(OCc2cn3cc(-c4ccc(F)cc4F)cnc3n2)cc1` [Example 47, 6-(2,4-difluorophenyl)-2-(4-fluorophenoxymethyl)imidazo[1,2-a]pyrimidine], with 100 to 500 nM.
As for `Fc1ccc(-c2cnc3nc(COc4cc(F)ccn4)cn3c2)cc1` [Example 123, 6-(4-fluorophenyl)-2-[(4-fluoro-2-pyridyl)oxymethyl)imidazo[1,2-a]pyrimidine], the figure is 100 to 500 nM.
As for `CCc1ccccc1-c1cnc2nc(COc3ccccn3)cn2c1` [Example 115, 6-(2-ethylphenyl)-2-(2-pyridyloxymethyl)imidazo[1,2-a]pyrimidine], the figure is 100 to 500 nM; as for `Fc1ccc(-c2cnc3nc(COc4ccccc4)cn3c2)c(F)n1` [Example 33, 6-(2,6-difluoropyridin-3-yl)-2-phenoxymethylimidazo[1,2-a]pyrimidine], 100 to 500 nM; as for `Cc1cc(F)ccc1-c1cnc2nc(COc3ccnc(F)c3)cn2n1` [Example 184, 2-(4-fluoro-2-methylphenyl)-6-((2-fluoropyridin-4-yloxy)methyl)imidazo[1,2-b][1,2,4]triazine], 100 to 500 nM.
As to `COc1cc(F)ccc1-c1cnc2nc(COc3ccccc3)cn2c1` [Example 20, 6-(2-methoxy-4-fluorophenyl)-2-phenoxymethylimidazo[1,2-a]pyrimidine], the EC50 was in the range of 100 to 500 nM.
As for `OCc1cc(C(F)(F)F)ccc1-c1cnc2nc(COc3ccccn3)cn2c1` [Example 142, [2-[2-(2-pyridyloxymethyl)imidazo[1,2-a]pyrimidin-6-yl]-5-(trifluoromethyl)phenyl]methanol], the figure is 100 to 500 nM; as for `OCc1cc(F)ccc1-c1cnc2nc(COc3ccc(F)cc3)cn2c1` [Example 97, [5-fluoro-2-[2-[(4-fluorophenoxy)methyl]imidazo[1,2-a]pyrimidin-6-yl]phenyl]methanol], 100 to 500 nM; as for `Fc1ccc(-c2cnc3nc(COc4ccccn4)cn3c2)c(F)c1` [Example 105, 6-(2,4-difluorophenyl)-2-(pyridin-2-yloxymethyl)imidazo[1,2-a]pyrimidine], 100 to 500 nM.
